These are literature values, as cited in US20110015182A1, “NOVEL CARBAMATE AMINO ACID AND PEPTIDE PRODRUGS OF OPIOIDS AND USES THEREOF” (priority 2009, published 2011).

Each structure is given as a SMILES string.

For data set [1] the following is noted: concurrent oral administration with various opioids; Linn and Steinbrook (2007).
The conditions of data set [2]: Norbury et al. (1983).

Turning to `C[C@H]1CN(C[C@H](Cc2ccccc2)C(=O)NCC(=O)O)CC[C@@]1(C)c1cccc(O)c1` [alvimopan], the “adverse GI effects of opioids (constipation, nausea and vomiting)” value in data set [1] was “markedly reduce”.
As to `CCC1(c2cccc(O)c2)CCCCN(C)C1` (centres unmarked) [meptazinol], the “range of observed oral bioavailabilities” value in data set [2] was 2-20%.
